Source: patent publication US20030027819A1, “Beta-sheet mimetics and methods relating to the use thereof” (Molecumetics Ltd., priority 1996, published 2003)
Like-named read-outs stand apart in the source and are kept apart here.

How the values were obtained:
control plasma = test: Prothrombin time (PT) in control plasma; format: biochemical
Method: Then 200 μl of prewarmed (at 37° C. for ˜10 minutes) thromboplastin with calcium (from Sigma) was rapidly added into the plasma sample.

[1] = system: TNF induced V-CAM expression in human umbilical vein entothelial cells (HUVEC); test: Inhibition of TNF induced V-CAM expression in HUVEC; format: cell-based
Method: Upon stimulation with inflammatory cytokines, HUVEC express cell surface adhesion molecules, including E-selectin, V-CAM, and I-CAM. Proteasome antagonists inhibit TNFα induced expression of these adhesion molecules, thereby providing a mechanism for regulating leucocyte adhesion and the inflammatory response.
More specifically, compounds (65), (68), (69) and (71) were assayed by the procedures set forth by Deisher, Kaushansky and Harlan (“Inhibitors of Topoisomerase II Prevent Cytokine-Induced Expression of Vascular Cell Adhesion Molecule-1, While Augmenting the Expression of Endothelial Leukocyte Adhesion Molecule-1 on Human Umbilical Vein Endothelial Cells,” Cell Adhesion Commun. 1:133-42, 1993) (incorporated herein by reference), with the exception that tetramethyl benzidine was used in place of o-phenylenediamine-peroxide.

thioredoxin = test: Insulin disulfide reduction by thioredoxin (turbidity at 650 nm); settings: 8 μM thioredoxin, 0-100 μM compound, 60 minutes
Method: A slight modification of the method of Holmgren was used. on a 96 well microtiter plate solutions of thioredoxin in 0.1 M potassium phosphate pH 6.5 buffer were preactivated for 15 minutes in the presence of 0.33 mM dithiothreitol (DTT) and 2 mM EDTA.
As a positive control, the structurally related natural products parthenolide and santonin were tested in the above assay in place of the inhibitors.

Plasmin = Plasmin (Bos taurus, UniProt P06868); test: Plasmin inhibition assay (Ki, Example 5); format: biochemical, bovine
Method: (§1) The reaction progress curves were recorded by reading the plates, typically 60 times with 30 second to 2 minute intervals. Initial rates were determined by unweighted nonlinear least-squares fitting to a first order reaction in GraFit (Erithacus Software Limited, London, England).

Factor XI = Factor XI (Homo sapiens, UniProt P03951); test: Factor XI inhibition assay (Ki, Example 8); format: biochemical
Method: as §1
Factor XI. The same buffer was utilized in this assay as in the thrombin assay. […] From this 100 μM solution, seven serial 1:5 dilutions were made in buffer for assay.

[2] = molecular target: Tissue Plasminogen Activator (t-PA) (Homo sapiens, UniProt P00750); test: t-PA inhibition assay (Ki, Example 5); format: biochemical
Method: as §1

factor VII = factor VII (Homo sapiens, UniProt P08709); test: Factor VII inhibition assay (Ki, Example 5); format: biochemical
Method: as §1
From this concentration point seven more sequential dilutions were made for the assay.

urokinase = urokinase (Homo sapiens, UniProt P00749); test: Urokinase inhibition assay (Ki, Example 5); format: biochemical
trypsin = molecular target: T1, trypsin (Bos taurus, UniProt P00760); test: Trypsin inhibition assay (Ki, Example 5); format: biochemical, bovine
T1 sequence (P00760 24-246): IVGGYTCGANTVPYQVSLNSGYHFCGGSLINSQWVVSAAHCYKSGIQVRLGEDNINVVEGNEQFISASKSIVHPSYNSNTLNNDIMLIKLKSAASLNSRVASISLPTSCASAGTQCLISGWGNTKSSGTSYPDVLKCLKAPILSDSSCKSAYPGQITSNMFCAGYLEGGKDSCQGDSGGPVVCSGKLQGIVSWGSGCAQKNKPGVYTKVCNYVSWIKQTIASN
Method: as §1

thrombin [3] = molecular target: T2, thrombin (Bos taurus, UniProt P00735); test: Thrombin inhibition assay (Ki, Example 5); format: biochemical, bovine; design: thrombin; bovine plasma; 0.66; from tissue; host or cells: bovine plasma
Method: as §1
Seven sequential dilutions were made from the first point for the assay.

factor X = factor X (Bos taurus, UniProt P00743); test: Factor X inhibition assay (Ki, Example 5), bovine plasma enzyme; format: biochemical; settings: bovine plasma enzyme (Example 5 protocol)
Method: as §1, with “The hydrolysis of chromogenic substrates was monitored at 405 nm. The” for “The”
Buffer and substrate were the same as used for thrombin assay. A 1:100 dilution was made in the pH8.0 tris buffer to serve as the first point. Seven more dilutions from the first were made for the assay.

thrombin [4] = molecular target: T2, thrombin; test: Thrombin inhibition by solid phase compounds of Tables 11-15; format: biochemical; design: 100 μl of 10 μM thrombin solution; settings: mixtures of diastereomers; read-out: Ki as thrombin inhibitors (mark at Cpd. No.)
Method: Following extensive washing with DMF, the resin was treated with the acid fluoride of N-Fmoc-4-aminomethylbenzoic acid, or (81), or (86) and Hunigs' base in DMF until the Kaiser test was negative. Alternatively, the Fmoc-protected thiazole-(75) or imidazole-based (77) linkers were coupled to the resin using BOP, HOBt and DIEA. In some instances Fmoc-Leu or another amino acid was attached to the resin prior to the thiazole-(75) or imidazole-based (77) linkers via the same methodology. […] Following washing with DMF a dienoic acid was coupled to the resin-bound linkers using PyBOP, HOBt and Hunigs' base in DMF until the result of a Kaiser test was negative. The cycloaddition was performed by pretreatment of a solution of a pyrazolidinedione (not shown) or urazole in DMF with a solution of [bis(trifluoroacetoxy)iodo]benzene in DMF. […] The resin was then washed with DMF and CH2Cl2. Oxidation to the ketoamide was effected by treatment of the resin with a solution of Dess-Martin periodinane in DMSO for 60 min. […] The supernatant was collected and the resin was washed with additional TFA. The combined filtrates were concentrated in vacuo. The residue was precipitated with diethyl ether and the ether was decanted. The resulting solid was reconstituted in 1:1 CH3CN:H2O and lyophilized. […] The compounds were assayed for inhibition of coagulation enzymes as mixtures of diastereomers.

[5] = Pharmacodynamic and pharmacokinetic study in rats; format: in vivo, male Sprague Dawley rats; settings: rat; for half-life: read-out: terminal halflife (converted)
Method: Specifically, a pharmacodynamic and pharmacokinetic study of structure (20b) was conducted in male Sprague Dawley rats. […] Groups of rats (n ═3 or 4) were sacrificed and exsanguinated at 0.25, 0.5, 1, 2, 4 and 8 hours following dosing. Efficacy parameters, aPTT and TT, were measured for each plasma sample.

Sequence of factor VII (P08709 213-466 limits assumed): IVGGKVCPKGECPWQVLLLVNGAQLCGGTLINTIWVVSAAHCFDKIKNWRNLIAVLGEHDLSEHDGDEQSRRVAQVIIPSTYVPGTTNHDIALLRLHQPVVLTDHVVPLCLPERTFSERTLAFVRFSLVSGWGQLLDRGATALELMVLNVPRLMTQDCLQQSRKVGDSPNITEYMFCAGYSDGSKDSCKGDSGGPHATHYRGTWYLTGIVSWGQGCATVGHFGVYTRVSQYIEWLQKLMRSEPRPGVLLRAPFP
Sequence of factor VII (P08709 61-212 limits assumed): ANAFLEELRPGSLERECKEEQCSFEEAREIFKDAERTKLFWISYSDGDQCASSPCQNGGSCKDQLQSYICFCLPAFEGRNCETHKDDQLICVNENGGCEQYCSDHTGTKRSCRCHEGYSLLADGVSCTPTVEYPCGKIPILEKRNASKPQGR
Sequence of factor VII (P13726 33-295 partner): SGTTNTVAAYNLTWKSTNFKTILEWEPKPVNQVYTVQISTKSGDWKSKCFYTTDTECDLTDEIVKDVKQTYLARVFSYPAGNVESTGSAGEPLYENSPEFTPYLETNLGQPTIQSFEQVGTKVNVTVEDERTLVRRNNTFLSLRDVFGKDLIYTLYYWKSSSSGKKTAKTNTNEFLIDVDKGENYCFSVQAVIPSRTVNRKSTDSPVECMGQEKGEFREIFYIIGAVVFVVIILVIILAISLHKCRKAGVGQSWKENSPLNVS
Sequence of Factor XI (P03951 388-625 limits assumed): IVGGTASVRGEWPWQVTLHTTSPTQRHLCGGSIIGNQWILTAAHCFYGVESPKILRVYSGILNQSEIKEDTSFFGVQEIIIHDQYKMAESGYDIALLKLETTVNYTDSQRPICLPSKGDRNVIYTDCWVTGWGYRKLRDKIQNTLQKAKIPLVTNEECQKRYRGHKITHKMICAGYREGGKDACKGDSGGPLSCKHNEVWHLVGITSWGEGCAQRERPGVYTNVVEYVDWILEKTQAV
Sequence of Factor XI (P03951 19-387 limits assumed): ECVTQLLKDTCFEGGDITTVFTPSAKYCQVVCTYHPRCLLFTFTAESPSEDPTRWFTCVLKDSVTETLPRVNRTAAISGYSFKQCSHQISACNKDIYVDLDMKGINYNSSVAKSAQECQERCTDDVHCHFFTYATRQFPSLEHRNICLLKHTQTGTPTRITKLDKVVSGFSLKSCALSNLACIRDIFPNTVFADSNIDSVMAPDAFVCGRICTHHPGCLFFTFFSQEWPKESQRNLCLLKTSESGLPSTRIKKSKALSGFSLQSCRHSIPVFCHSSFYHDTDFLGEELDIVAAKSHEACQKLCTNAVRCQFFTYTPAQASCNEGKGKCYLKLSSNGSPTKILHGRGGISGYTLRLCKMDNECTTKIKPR
Sequence of Plasmin (P06868 584-812 limits assumed): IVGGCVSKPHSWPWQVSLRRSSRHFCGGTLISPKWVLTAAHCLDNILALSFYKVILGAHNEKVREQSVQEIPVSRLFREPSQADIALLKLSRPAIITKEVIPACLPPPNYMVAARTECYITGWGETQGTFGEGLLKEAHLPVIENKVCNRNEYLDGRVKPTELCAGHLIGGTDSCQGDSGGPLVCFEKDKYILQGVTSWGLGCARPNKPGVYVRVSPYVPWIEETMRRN
Sequence of Plasmin (P06868 104-583 limits assumed): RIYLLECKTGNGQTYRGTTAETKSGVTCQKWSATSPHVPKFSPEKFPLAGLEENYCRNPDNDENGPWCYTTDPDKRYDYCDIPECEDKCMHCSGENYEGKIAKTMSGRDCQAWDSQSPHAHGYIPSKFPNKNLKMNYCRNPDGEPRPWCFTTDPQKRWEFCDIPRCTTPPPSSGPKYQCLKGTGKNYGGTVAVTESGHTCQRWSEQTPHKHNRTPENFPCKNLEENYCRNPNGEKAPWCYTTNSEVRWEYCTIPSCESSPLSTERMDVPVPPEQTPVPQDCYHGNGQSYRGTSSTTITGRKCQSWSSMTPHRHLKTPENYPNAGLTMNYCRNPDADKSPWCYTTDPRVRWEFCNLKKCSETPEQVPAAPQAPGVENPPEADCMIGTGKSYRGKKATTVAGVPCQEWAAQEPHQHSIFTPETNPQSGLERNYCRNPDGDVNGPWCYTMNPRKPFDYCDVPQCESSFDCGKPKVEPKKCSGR
Sequence of factor X (P00743 234-492 limits assumed): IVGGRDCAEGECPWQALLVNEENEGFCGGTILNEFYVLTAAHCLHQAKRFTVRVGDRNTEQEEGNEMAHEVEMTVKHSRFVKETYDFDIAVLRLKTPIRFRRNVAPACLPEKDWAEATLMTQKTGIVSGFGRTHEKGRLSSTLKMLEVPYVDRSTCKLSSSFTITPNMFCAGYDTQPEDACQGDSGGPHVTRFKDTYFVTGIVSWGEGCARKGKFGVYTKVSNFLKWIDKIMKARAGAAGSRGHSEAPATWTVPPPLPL
Sequence of factor X (P00743 41-180 limits assumed): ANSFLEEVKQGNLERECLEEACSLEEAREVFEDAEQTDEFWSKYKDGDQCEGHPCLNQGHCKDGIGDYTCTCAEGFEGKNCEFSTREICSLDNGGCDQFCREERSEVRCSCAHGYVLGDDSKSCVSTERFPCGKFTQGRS
Sequence of Tissue Plasminogen Activator (t-PA) (P00750 36-562): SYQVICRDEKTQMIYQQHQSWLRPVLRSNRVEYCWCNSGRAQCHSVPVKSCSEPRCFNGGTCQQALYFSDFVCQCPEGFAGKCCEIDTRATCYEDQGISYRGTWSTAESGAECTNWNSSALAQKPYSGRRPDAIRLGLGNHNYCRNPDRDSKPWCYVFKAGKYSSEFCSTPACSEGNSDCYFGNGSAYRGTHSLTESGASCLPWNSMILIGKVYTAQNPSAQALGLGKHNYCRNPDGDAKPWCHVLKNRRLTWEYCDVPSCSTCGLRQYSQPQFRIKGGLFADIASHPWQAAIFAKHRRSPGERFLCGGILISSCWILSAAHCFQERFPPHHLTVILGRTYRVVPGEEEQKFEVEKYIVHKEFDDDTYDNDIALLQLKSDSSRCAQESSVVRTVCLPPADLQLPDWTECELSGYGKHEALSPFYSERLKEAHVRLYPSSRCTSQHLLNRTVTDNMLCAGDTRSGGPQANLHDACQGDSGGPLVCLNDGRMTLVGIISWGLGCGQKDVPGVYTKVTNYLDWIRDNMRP

In the case of N=C(N)NCCC[C@H](NC(=O)[C@@H]1CCN2CC[C@@](N)(Cc3ccccc3)C(=O)N12)C(=O)CCl [Structure 13b], the PT (control plasma; Concentration 1 pM) is reported as 13 s, the PT (control plasma; Concentration 10 pM) is reported as 17 s and the PT (control plasma; Concentration 50 pM) is reported as 18 s. For the same compound, the PT (control plasma; Concentration 100 pM) was 23 s, the PT (control plasma; Concentration 200 pM) was 24 s and the PT (control plasma; Concentration 500 pM) was 27 s. The PT (control plasma; Concentration 1 nM) was 30 s, the PT (control plasma; Concentration 10 nM) was 31 s and the PT (control plasma; Concentration 30 nM) was 31 s. For the same compound, the PT (control plasma; Concentration 50 nM) was 30 s and the PT (control plasma; Concentration 80 nM) was 33 s.

With CC1C=CC(C=O)n2c(=O)n(-c3ccccc3)c(=O)n21 (stereo not drawn) [Structure 69] the IC50 [1] was 32400 ± 1700 nM.

With COC(=O)/C=C/C(=O)C1C=CC(C)n2c(=O)n(-c3ccccc3)c(=O)n21 (stereo not drawn) [Structure 233] the “thioredoxin-induced turbidity of insulin at 650 nM” value (shortened to “thioredoxin-induced turbidity”) (thioredoxin) was “turbidity decreases with increasing concentration”.

For COC(=O)C#CC(O)C1C=CC(C)n2c(=O)n(-c3ccccc3)c(=O)n21 (stereo not drawn) [Structure 231], the “thioredoxin-induced turbidity” value (thioredoxin) was “turbidity decreases with increasing concentration”.

Work on N=C(N)NCCC[C@H](NC(=O)[C@@H]1CCN2CC[C@@](N)(Cc3ccccc3)C(=O)N12)C(=O)c1nc2ccccc2s1 [20^b] yielded a Ki (Plasmin) of 415 nM, a Ki (Factor XI) of 27 nM and a Ki ([2]; read-out: Ki tPA (tissue Plasminogen Activator)) of 495 nM. The Ki (factor VII) was 270 nM and the Ki (urokinase) was 600 nM.

Compound N=C(N)NCCC[C@H](NC(=O)[C@@H]1CC[C@@H]2CC[C@](N)(Cc3ccccc3)C(=O)N21)C(=O)c1nc2ccccc2s1 [Structure 29a] has a Ki (trypsin) of 0.54 nM, a Ki (thrombin [3]) of 10.4 nM and a Ki (Factor XI) of 391 nM. For the same compound, the Ki (factor X) was 4600 nM and the Ki (factor VII) was 1800 nM.

With COC(=O)C#CC(O)c1cccc2c1C(=O)N(c1ccccc1)C2=O (stereo not drawn) [Structure 71] the IC50 [1] was 4900 ± 180 nM.

For O=C(CCl)C1CCCn2c(=O)n(-c3ccccc3)c(=O)n21 (stereo not drawn) [Structure 68], the IC50 [1] was 14200 ± 800 nM.

For CC1=C2[C@H]3OC(=O)[C@@H](C)[C@@H]3CC[C@@]2(C)C=CC1=O [Santonin, reference compound], the “thioredoxin-induced turbidity” value (thioredoxin) was “did not block thioredoxin-induced turbidity of insulin”.

Work on O=C(CCl)c1cccc2c1C(=O)N(c1ccccc1)C2=O [Structure 65] yielded an IC50 [1] of 9600 ± 100 nM.

Work on CC(C)CCn1c(=O)n2n(c1=O)C(C(=O)NC(CCCCN)C(=O)C(=O)NCCc1ccc(C(N)=O)cc1)C=CC2CC(C)CC(C)(C)C (stereo not drawn) [Structure 126] yielded a Ki (thrombin [4]) of less than 10 nM.

For CC(C)CC1C=CC(C(=O)NC(CCCCN)C(=O)C(=O)NCCc2ccc(C(N)=O)cc2)n2c(=O)n(CCc3cccs3)c(=O)n21 (stereo not drawn) [Structure 115], the Ki (thrombin [4]) was less than 10 nM.

CC1=CC(C(=O)NC(CCCNC(=N)N)C(=O)c2nc(C(N)=O)cs2)n2c(=O)n(CC(c3ccccc3)c3ccccc3)c(=O)n2C1 (stereo not drawn) [Structure 198] showed a Ki (thrombin [4]) of less than 10 nM.

For CC(C)CC1C=CC(C(=O)NC(CCCCN)C(=O)C(=O)NCCc2ccc(C(N)=O)cc2)n2c(=O)n(C(c3ccccc3)c3ccccc3)c(=O)n21 (stereo not drawn) [Structure 118], the Ki (thrombin [4]) was less than 10 nM.

With CC1=CC(C(=O)NC(CCCCN)C(=O)C(=O)NCCc2ccc(C(N)=O)cc2)n2c(=O)n(CC(C)c3ccccc3)c(=O)n2C1c1ccccc1 (stereo not drawn) [Structure 123] the Ki (thrombin [4]) was less than 10 nM.

NCCCCC(NC(=O)C1C=C2CCCCC2n2c(=O)n(Cc3cc(F)ccc3F)c(=O)n21)C(=O)C(=O)NCCCc1ccc(C(N)=O)cc1 (stereo not drawn) [Structure 226] showed a Ki (thrombin [4]) of less than 10 nM.

CC(C)CC1C=CC(C(=O)NC(CCCCN)C(=O)C(=O)NCCc2ccc(C(N)=O)cc2)n2c(=O)n(Cc3ccccc3)c(=O)n21 (stereo not drawn) [Structure 112] showed a Ki (thrombin [4]) of less than 10 nM.

Work on N=C(N)NCCC[C@H](NC(=O)[C@@H]1CCN2CC[C@@](N)(Cc3ccccc3)C(=O)N12)C(=O)c1nc2ccccc2s1 [Structure 20b] yielded a Ki (Plasmin) of 415 nM, a Ki (Factor XI) of 27 nM and a Ki (factor X) of 966 nM. It also gave a Ki ([2]; read-out: Ki t-PA) of 495 nM, a Ki (factor VII) of 270 nM and a Ki (urokinase) of 600 nM. The half-life ([5]; male, Sprague Dawley, plasma, 4 mg/kg IV) was 7.5 h, the bioavailability ([5]; male, Sprague Dawley, plasma, 10 mg/kg PO vs 4 mg/kg IV, read-out: bioavailability of orally administered compound) was roughly 27% and the half-life ([5]; male, Sprague Dawley, plasma, 10 mg/kg PO) was 4.5 h. For the same compound, the “Efficacy parameters aPTT and TT (FIGS. 4A and 4B)” value ([5]; 4 mg/kg IV and 10 mg/kg PO) was “in vivo efficacy”.

CC1=CC(C(=O)NC(CCCCN)C(=O)C(=O)NCCc2ccc(C(N)=O)cc2)n2c(=O)n(Cc3cc(F)ccc3F)c(=O)n2C1 (stereo not drawn) [Structure 100] showed a Ki (thrombin [4]) of less than 10 nM.

With CC(CC1C=CC(C(=O)NC(CCCCN)C(=O)C(=O)NCCc2ccc(C(N)=O)cc2)n2c(=O)n(-c3ccc(C(C)(C)C)cc3)c(=O)n21)CC(C)(C)C (stereo not drawn) [Structure 128] the Ki (thrombin [4]) was less than 10 nM.

Compound CC(C)CC1C=CC(C(=O)NC(CCCCN)C(=O)C(=O)NCCc2ccc(C(N)=O)cc2)n2c(=O)n(CC(C)c3ccccc3)c(=O)n21 (stereo not drawn) [Structure 111] has a Ki (thrombin [4]) of less than 10 nM.
